# Assay results as given in US20020169183A1, “Acridines as stimulators for Fas-mediated apoptosis” (priority 2001, published 2002).
# How the values were obtained:
# Hepatocytes = assay: Fas-dependent apoptosis by FACS analysis (DNA fragmentation, propidium iodide; annexin V); format: cell-based; conditions: at 10 μM
# Experimental: Assays for Fas-dependent apoptosis are known in the art. See, for example, Ruiz-Ruiz et al, Cell Death Diff. 6:271 (1999); and Muller et al., […]. 188:2033 (1998).
# Apoptosis is identified by detection of the DNA fragmentation pattern characteristic of apoptotic cell death. In this Example, apoptosis is detected and measured by FACS® analysis carried out in a FACScan® flow cytometer (Becton Dickinson) using CellQuest software. Quantification of DNA fragmentation is performed by FACS® analysis of propidium iodide-stained nuclei as described in Nicolletti et al., J. Immunol. Methods 139:271-279 (1991). Hepatocytes floating in the culture medium are collected by centrifugation at 200× g. Adherent hepatocytes are harvested by incubation with 1% trypsin for 1 min. The cells are washed in phosphate-buffered saline (PBS), suspended in hypotonic lysis buffer (0.1% sodium citrate, 0.1% Triton X, and […] propidium iodide) (Sigma) and incubated at 4° C. for 6 hours. Cells are then analyzed for DNA content by flow cytometry.
# Early apoptotic changes are identified using annexin V-Fluos (Boehringer Mannheim) which binds to phosphatidylserine molecules (PS) exposed on apoptotic, but not normal, cell membranes (PS is normally restricted to the inner leaflet of the cell membrane bilayer). […] Cells are incubated for 10-15 min and analyzed on a flow cytometer using CellQuest software. […]
# Synoviocytes = assay: Stimulation of Fas-mediated apoptosis: XTT cell viability with anti-human Fas antibody h-HFE7A, stimulation index; format: cell-based; conditions: 10 μM compound with h-HFE7A 1000 ng/mL, synoviocytes from rheumatoid arthritis patients, 16 hours
# Excerpt: Anti-human Fas antibody h-HFE7A, humanized antibody was obtained from Sankyo Co., Ltd. This antibody induces apoptosis when cross-linked with secondary antibody in vitro.
# Samples of human synovium were obtained from rheumatoid arthritis patients at the time of total knee replacement surgery or synoviectomy. Synovial tissue was minced into small pieces and was digested with collagenase and cultured in Ham's F12 medium supplemented with 10% fetal bovine serum (F10F) in a humidified 5% CO2 atmosphere at 37° C. Adherent cells were considered as synoviocytes and were cultivated in F10F.
# Cell viability was determined with the XTT method described in Cancer Res. 48:4827 (1988). Ninety-six well flat plates were precoated with anti-human IgG. h-HFE7A (1000 ng/mL) and/or 10 μM of a compound of this invention were added and incubated for 2 hours. Synoviocytes were seeded (10,000/well) and incubated for 16 hours. Background wells received culture medium only. XTT (2,3-Bis[2-methoxy-4-nitro-sulfophenyl]-2H-tetrazolium-5-carboxanilide), final concentration 200 μg/mL, and phenazine methosulfate, final concentration 5 μM, were added to each well, and further incubated for 4 hours. The absorbance at 450 nm was measured and cell viability was determined as follows: [formula]
# Enhancement of Fas-mediated apoptosis by compounds of this invention was determined by the stimulation index (SI): [formula] […]
smiles,measurement,setting,value
"CCN(CC)CCCNc1c2ccccc2nc2ccccc12 [Compound 3, 9-[(3-diethylaminopropyl)amino]acridine]",stimulation of Fas-dependent apoptosis,Hepatocytes,shows stimulation
same,"Enhancement of Fas-mediated apoptosis, stimulation index (SI)",Synoviocytes,positive (An SI over 2.0 was considered positive)
